These results are taken from patent EP1005460B1, “PROSTAGLANDIN ENDOPEROXIDE H SYNTHASE BIOSYNTHESIS INHIBITORS” (ABBOTT LABORATORIES, priority 1997, dated 1999).

In assay [1] the target is T1, Cox-2 (Homo sapiens, UniProt P35354).
T1 sequence (P35354 18-604): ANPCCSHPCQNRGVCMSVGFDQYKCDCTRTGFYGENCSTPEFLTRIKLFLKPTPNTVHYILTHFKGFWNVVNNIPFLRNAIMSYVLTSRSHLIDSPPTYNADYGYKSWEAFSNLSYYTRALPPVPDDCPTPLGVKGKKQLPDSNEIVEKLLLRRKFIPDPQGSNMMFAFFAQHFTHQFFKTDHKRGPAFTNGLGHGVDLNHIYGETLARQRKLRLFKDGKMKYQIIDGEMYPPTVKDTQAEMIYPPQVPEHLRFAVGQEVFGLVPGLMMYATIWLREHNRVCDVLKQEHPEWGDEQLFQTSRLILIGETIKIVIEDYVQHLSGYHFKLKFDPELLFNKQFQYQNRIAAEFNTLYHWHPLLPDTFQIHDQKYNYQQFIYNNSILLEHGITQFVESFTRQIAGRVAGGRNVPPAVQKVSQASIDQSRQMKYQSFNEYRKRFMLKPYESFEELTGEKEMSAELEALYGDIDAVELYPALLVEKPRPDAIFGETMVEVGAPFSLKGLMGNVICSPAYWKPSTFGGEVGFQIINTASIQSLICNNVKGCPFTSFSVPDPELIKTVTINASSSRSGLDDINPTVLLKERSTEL
The assay is described as follows: Recombinant human PGHS-2 (Cox-2) enzyme assay, PGE2 by EIA. It is filed as biochemical. Set-up: made in house; host or cells: baculovirus/Sf9 insect cells (microsomes). The settings on record: microsomes, 60 min preincubation, 10 µM arachidonic acid; for inhibition at 0.1 µM: at 100 nM; for inhibition at 0.1 µM / inhibition at 1 µM: read-out: RHUCX2 Cox-2 percent inhibition; for IC50: read-out: RHUCX2 Cox-2 IC50 (parenthetical values); for inhibition at 1 µM: at 1000 nM. Here is the method: (§1) To compare the mean responses of the treatment groups, analysis of variance was applied. Percent inhibition values were determined by comparing the individual treatment mean values to the mean of the control group. Linear regression was used to estimate IC50's/ED50's in appropriate assays.
(§2) EIA reagents for prostaglandin determination were purchased from Perseptive Diagnostics, (Cambridge, MA). PGE2 levels in lavage fluids were determined after the samples were dried under nitrogen and reconstituted with assay buffer. PGE2 levels in enzyme assays or cell culture media were measured against standards prepared in the same milieu. The immunoassays were conducted as recommended by the manufacturer. The EIA was conducted in 96 well microtiter plates (Nunc Roskilde, Denmark) and optical density was measured using a microplate reader (Vmax, Molecular Devices Corp., Menlo Park, CA).
(§3) Inhibition of prostaglandin biosynthesis in vitro was evaluated using recombinant human Cox-1 (r-hu Cox1) and Cox-2 (r-hu Cox2) enzyme assays. […] The reaction was allowed to run for 2.5 minutes at room temperature prior to quenching with HCl and neutralization with NaOH. PGE2 production in the presence and absence of the drug was determined by EIA analysis. The EIA was conducted in 96 well microtiter plates (Nunc Roskilde, Denmark) and optical density was measured using a microplate reader (Vmax, Molecular Devices Corp., Menlo Park, CA). EIA reagents for prostaglandin determination were purchased from Perseptive Diagnostics (Cambridge, MA). PGE2 levels were measured against standards prepared in the same milieu. The immunoassays were conducted as recommended by the manufacturer. The compounds are designated by the Example Number. […] Values for Cox-2 inhibition that are parenthetical indicate IC50 values.

Assay [2] has as its target T2, Cox-1 (Homo sapiens, UniProt P23219). The assay is described as follows: Recombinant human PGHS-1 (Cox-1) enzyme assay, PGE2 by EIA. It is filed as biochemical. The arrangement: made in house; host or cells: baculovirus/Sf9 insect cells (microsomes). The settings on record: microsomes, 60 min preincubation, 10 µM arachidonic acid, read-out: RHUCX1 Cox-1 percent inhibition. As to the method:
as §1, §2, §3

Assay [3] has as its target T2, Cox-1. The assay is described as follows: U937 cell assay, Cox-1 activity by EIA. It is filed as cell-based. Set-up: host or cells: U937 cells. The settings on record: U937 cells. As to the method:
as §1, §2
(§4) Human amnionic WISH cells were grown to 80% confluence in 48 well plates. Following removal of the growth medium and two washings with Gey's Balanced Salt Solution, 5 ng IL-1 β/ml (UBI, Lake Placid, NY) was added to the cells with or without test compound in DMSO (0.01% v/v) in Neuman-Tytell Serumless Medium (GIBCO, Grand Island, NY). Following an 18 hour incubation to allow for the maximal induction of PGHS-2, the conditioned medium was removed and assayed for PGE2 activity by EIA analysis as described above.
U937 (ATCC, Rockville, MD) cells were grown in a similar fashion to the WISH cells. After incubation, the conditioned medium was removed and assayed for Cox-1 activity by EIA analysis as described above. U937 values indicate percent inhibition at the particular micromolar dose level while parenthetical values indicate IC50 values. Wish cell values indicate Cox-2 pecent inhibition at the particular micromolar dose level.

Assay [4] addresses T1, Cox-2. Briefly: IL-1β induced PGE2 production in WISH cells. It is filed as cell-based. The arrangement: endogenous in cells; host or cells: human amnionic WISH cells induced with IL-1β. As to the method:
as §1, §2, §4
U937 (ATCC, Rockville, MD) cells were grown in a similar fashion to the WISH cells. After incubation, the conditioned medium was removed and assayed for Cox-1 activity by EIA analysis as described above. U937 values indicate percent inhibition at the particular micromolar dose level while parenthetical values indicate IC50 values. […]

Assay [5] concerns prostaglandin biosynthesis. The assay is described as follows: Rat carrageenan pleural inflammation model (CIP). It is filed as in vivo, Sprague-Dawley rats. As to conditions: 10 milligrams per kilogram body weight, oral, 30 minutes before intrapleural carrageenan; lavage after four hours. As to the method: as §1, §2
Pleural inflammation was induced in male adrenalectomized Sprague-Dawley rats following the method of Vinegar et al., Fed. Proc. 1976, 35, 2447-2456. Animals were orally dosed with experimental compounds, in 0.2% HPMC, 30 minutes prior to the intrapleural injection of 2% lambda carrageenan (Sigma Chemical Co., St. Louis MO). Four hours later the animals were euthanized and the pleural cavities lavaged with ice cold saline. […] Eicosanoids were determined by EIA as described above. […]

Where [6] appears, read: U-937, read-out: U937 percent inhibition.

Read-outs that look alike come from different tables or passages of the source.

T2 sequence (P23219 24-599): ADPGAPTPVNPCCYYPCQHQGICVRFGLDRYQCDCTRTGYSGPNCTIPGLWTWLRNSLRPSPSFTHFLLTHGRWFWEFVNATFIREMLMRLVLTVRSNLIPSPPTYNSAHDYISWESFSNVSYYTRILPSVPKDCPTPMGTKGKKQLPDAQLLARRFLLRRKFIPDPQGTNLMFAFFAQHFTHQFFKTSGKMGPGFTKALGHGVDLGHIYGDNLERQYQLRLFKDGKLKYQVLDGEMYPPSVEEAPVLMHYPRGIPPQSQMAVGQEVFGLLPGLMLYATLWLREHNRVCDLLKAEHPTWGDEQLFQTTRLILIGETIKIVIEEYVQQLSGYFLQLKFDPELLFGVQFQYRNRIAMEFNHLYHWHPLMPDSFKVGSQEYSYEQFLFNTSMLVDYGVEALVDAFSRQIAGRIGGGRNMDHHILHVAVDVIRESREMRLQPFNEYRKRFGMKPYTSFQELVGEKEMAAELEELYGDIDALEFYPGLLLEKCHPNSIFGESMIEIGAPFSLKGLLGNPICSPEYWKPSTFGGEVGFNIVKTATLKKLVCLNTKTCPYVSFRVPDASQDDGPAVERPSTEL

On to `CS(=O)(=O)c1ccc(-c2cc(=O)n(CC3CCCC3)nc2-c2ccc(F)cc2)cc1` [Example 24, 2-Cyclopentylmethyl-5-(4-methylsulfonylphenyl)-6-(4-fluorophenyl)-3(2H)-pyridazinone], for which the inhibition (commonly the change of the read-out against control, counted positive when it falls) at 0.1 µM at Cox-2 [1] is 87%. Besides, the inhibition at 100 µM on Cox-1 [2] was 23%.
With `CCCCCn1nc(-c2ccc(F)cc2)c(-c2ccc(S(C)(=O)=O)cc2)cc1=O` [Example 14, 2-(n-Pentyl)-5-(4-methylsulfonylphenyl)-6-(4-fluorophenyl)-3(2H)-pyridazinone], the inhibition at 0.1 µM at Cox-2 [1] was 66%. For the same compound, the inhibition at 1 µM on Cox-1 [3] (U-937, at 1 µM, read-out: U937 percent inhibition) worked out at 42%. On Cox-2 [4] (at 0.00001 (head:)), the “Wish Cox-2 percent inhibition” value is 34 @ 0.00001%. The inhibition at 100 µM on Cox-1 [2] was 23%.
Regarding `CS(=O)(=O)c1ccc(-c2cc(=O)n(CC3CCCCC3)nc2-c2ccc(F)cc2)cc1` [Example 15, 2-Cyclohexylmethyl-5-(4-methylsulfonylphenyl)-6-(4-fluorophenyl)-3(2H)-pyridazinone], the IC50 (commonly the concentration that gives 50% inhibition) on Cox-2 [1] was found to be 5 nM. Further, the inhibition at 0.01 µM on Cox-1 [3] (U-937, at 0.01 µM, read-out: U937 percent inhibition) is 33%. Moreover, the “Wish Cox-2 percent inhibition” value on Cox-2 [4] (at 0.001 (head:)) is 43 @ 0.001%. In addition, on Cox-1 [2], the inhibition at 100 µM is 52%.
Take `CS(=O)(=O)c1ccc(-c2cc(=O)n(C3CCCC3)nc2-c2ccc(F)cc2)cc1` [Example 25, 2-Cyclopentyl-5-(4-methylsulfonylphenyl)-6-(4-fluorophenyl)-3(2H)-pyridazinone]: the inhibition at 0.1 µM at Cox-2 [1] came out at 42%. For the same compound, on Cox-1 [2], the inhibition at 100 µM amounted to 7%.
`CS(=O)(=O)c1ccc(-c2cc(=O)n(Cc3ccccc3)nc2-c2ccc(F)cc2)cc1` [Example 7, 2-Benzyl-5-(4-methylsulfonylphenyl)-6-(4-fluorophenyl)-3(2H)-pyridazinone]: the half-maximal inhibitory concentration (IC50) at Cox-2 [1] stood at 20 nM; at Cox-1 [3] (read-out: U937 IC50 (parenthetical values)), 870 nM. The “CIP Inh @10mpk” value in assay [5] is 22%. The inhibition at 100 µM at Cox-1 [2] amounted to 4%.
On to `CCCCn1nc(-c2ccc(F)cc2)c(-c2ccc(S(C)(=O)=O)cc2)cc1=O` [Example 11, 2-(n-Butyl)-5-(4-methylsulfonylphenyl)-6-(4-fluorophenyl)-3(2H)-pyridazinone], for which the inhibition at 0.1 µM on Cox-2 [1] came to 51%. The inhibition at 100 µM on Cox-1 [2] came out at 19%.
With `CS(=O)(=O)c1ccc(-c2cc(=O)n(CC3CCC3)nc2-c2ccc(F)cc2)cc1` [Example 20, 2-(Cyclobutylmethyl)-5-(4-methylsulfonylphenyl)-6-(4-fluorophenyl)-3(2H)-pyridazinone], the inhibition at 10 µM on Cox-1 [3] (setting [6]) came to 60%.
Turning to `CS(=O)(=O)c1ccc(-c2cc(=O)n(CC3CC3)nc2-c2ccc(F)cc2)cc1` [Example 23, 2-(Cyclopropylmethyl)-5-(4-methylsulfonylphenyl)-6-(4-fluorophenyl)-3(2H)-pyridazinone], the concentration for half-maximal inhibition (IC50) on Cox-2 [1] worked out at 250 nM. Also, the inhibition at 10 µM at Cox-1 [3] (setting [6]) was determined as 30%. In addition, the “CIP Inh @10mpk” value in assay [5] is reported as 41%. Also, the “Wish Cox-2 percent inhibition” value on Cox-2 [4] is on record as 62 @ 1%. In addition, the inhibition at 100 µM on Cox-1 [2] worked out at 24%.
Consider `CC#CCn1nc(-c2ccc(F)cc2)c(-c2ccc(S(C)(=O)=O)cc2)cc1=O` [Example 19, 2-(2-Butyn-1-yl)-5-(4-methylsulfonylphenyl)-6-(4-fluorophenyl)-3(2H)-pyridazinone], for which the inhibition at 1 µM at Cox-2 [1] turned out to be 66%. Further, the inhibition at 100 µM at Cox-1 [2] was determined as 3%.
As to `C#CCn1nc(-c2ccc(F)cc2)c(-c2ccc(S(C)(=O)=O)cc2)cc1=O` [Example 17, 2-Propargyl-5-(4-methylsulfonylphenyl)-6-(4-fluorophenyl)-3(2H)-pyridazinone], the half-inhibitory concentration (IC50) at Cox-2 [1] came out at 850 nM. On Cox-1 [3] (setting [6]), the inhibition at 10 µM is 41%. Further, the “Wish Cox-2 percent inhibition” value at Cox-2 [4] is 54 @ 1%. Also, at Cox-1 [2], the inhibition at 100 µM worked out at 0%.
`CS(=O)(=O)c1ccc(-c2cc(=O)n(C3CCCCC3)nc2-c2ccc(F)cc2)cc1` [Example 18, 2-Cyclohexyl-5-(4-methylsulfonylphenyl)-6-(4-fluorophenyl)-3(2H)-pyridazinone]: the inhibition at 0.1 µM on Cox-2 [1] is 49%. Besides, the inhibition at 100 µM at Cox-1 [2] worked out at 16%.
Turning to `CS(=O)(=O)c1ccc(-c2cc(=O)n(Cc3ccc(F)cc3)nc2-c2ccc(F)cc2)cc1` [Example 10, 2-(4-Fluorobenzyl)-5-(4-methylsulfonylphenyl)-6-(4-fluorophenyl)-3(2H)-pyridazinone], at Cox-2 [1], the inhibition at 0.1 µM was 65%. On Cox-1 [3] (setting [6]), the inhibition at 10 µM amounted to 62%. The inhibition at 100 µM on Cox-1 [2] was 2%.
`CC(c1ccc(F)cc1)n1nc(-c2ccc(F)cc2)c(-c2ccc(S(C)(=O)=O)cc2)cc1=O` (stereo not drawn) [Example 12, 2-(4-Fluoro-α-methylbenzyl)-5-(4-methylsulfonylphenyl)-6-(4-fluorophenyl)-3(2H)-pyridazinone]: the concentration for half-maximal inhibition (IC50) at Cox-2 [1] turned out to be 740 nM. For the same compound, the inhibition at 100 µM on Cox-1 [2] worked out at 8%.
As to `CS(=O)(=O)c1ccc(-c2cc(=O)n(CC(F)(F)F)nc2-c2ccc(F)cc2)cc1` [Example 22, 2-(2,2,2-Trifluoroethyl)-5-(4-methylsulfonylphenyl)-6-(4-fluorophenyl)-3(2H)-pyridazinone], the inhibition at 1 µM on Cox-2 [1] came out at 46%. The inhibition at 100 µM at Cox-1 [2] was found to be 0%.
`CC(C)=CCn1nc(-c2ccc(F)cc2)c(-c2ccc(S(C)(=O)=O)cc2)cc1=O` [Example 21, 2-(3-Methylbuten-2-yl)-5-(4-methylsulfonylphenyl)-6-(4-fluorophenyl)-3(2H)-pyridazinone]: at Cox-2 [1], the inhibition at 0.1 µM turned out to be 92%. Besides, the inhibition at 10 µM at Cox-1 [3] (setting [6]) was found to be 80%. Further, the inhibition at 100 µM at Cox-1 [2] worked out at 62%.
